The values that follow come from US11999677B2, “Benzylamino-oxoethyl benzamide analogs and methods of use” (The Board of Regents of the University of Oklahoma, priority 2018, dated 2024).

For data set [1], the system named is pancreatic β-cells. The conditions noted are these: cited from earlier work.
A short description of data set [2]: Solubility assay: turbidity in water, absorbance at 620 nm. Format: physicochemical. The conditions noted are these: pure H2O with 1% DMSO, 37° C., 1-2 h shaking, absorbance 620 nm; compared with compound 1. The method, then:
Aqueous solubility was assessed as the degree of turbidity of compound in aqueous solutions, detected by absorbance at 620 nm. Higher turbidity indicated lower solubility. The experiments were performed in triplicate, with the results as the means±SD of triplicate wells.
Each compound was prepared at concentrations from 40 mM to 0.1 mM in DMSO in a serial-dilution manner. 2 μL of each of the above compound solutions was then dispensed directly to ˜198 μL of pure H2O in a 96-well white clear bottom microplate. Resulting solutions were shaken at 37° C. temperature 1-2 h on a rotary shaker at varying shaking rates to reach equilibrium solubility. The turbidity of the solution was measured using UV-visible spectrophotometry at 620 nm.
We investigated whether the compounds of the present disclosure have improved aqueous solubility. Using a thermodynamic turbidimetric assay we evaluated the aqueous solubility of several of the newly synthesized compounds.

In data set [3] the test system is INS-1 cells. The data set is described as follows: Cell viability assay: INS-1 β-cells co-treated with compound and tunicamycin (Tm), CellTiter-Glo intracellular ATP. In kind it is cell-based, rat. The note with it: for Max Activity (%) / Emax: % rescue from Tm (0.15 μg/mL)-induced reduction of INS-1 cell viability, intracellular ATP, 72 h, Tm alone = 0%, DMSO control without Tm = 100%; for Emax: INS1, 72 h, read-out: Max Activity (%); for EC50: ten 2-fold serial titration points, triplicate, read-out: EC50 (μM), concentration that reaches half-maximal activity for INS-1 cell viability; for β-cell protective activity against Tm (in words): INS-1 cells in the presence of Tm. On the procedure: INS-1 cells were cultured in RPMI 1640 medium (Corning) supplemented with 10% FBS (Atlanta Biologicals), 10 mM HEPES (Gibco-Life Technologies), 1 mM sodium pyruvate (Corning), 50 μM 2-mercaptoethanol (Sigma-Aldrich), and antibiotics (100 UI/mL penicillin and 100 µg/mL streptomycin; Corning) and maintained in a humidified 5% CO2 atmosphere at 37° C.
INS-1 cells were resuspended in RPMI 1640 medium containing 10% FBS and plated at 5×10^3 cells/(40 μL.well) into white clear bottom 384-well plates (Greiner) using an automated liquid handler (Biotek). After 24 h incubation at 37° C., library compounds were added to the wells at the indicated concentration using a pin-transfer robot (PerkinElmer). Tunicamycin (Tm) in RPMI 1640 medium containing 10% FBS was then added at a final concentration of 0.15 μg/mL. After 72 h, the medium was removed and 20 μL of CellTiter-Glo reagent which measures intracellular ATP levels as an indicator of viability (Promega) was added. Luminescence was measured 10 min later using an Envision plate reader (PerkinElmer).
We designed and synthesized novel benzylamino-oxoethyl benzamide analogs (5a-q, Table 1) and studied their effects on β-cell protection against ER stress. The analogs were tested for the viability of rat INS-1 β-cells in the presence of Tm, a potent ER stress inducer that inhibits N-linked glycosylation of proteins. The maximum activities and the concentrations that reach half-maximal activity (EC50) of the compounds were evaluated by the degree of increase in viability of INS-1 cells co-treated with the compounds in the presence of Tm compared with Tm treatment alone.

Where [4] appears, read: Rattus norvegicus, INS1, INS-1 cells with Tm 0.15 μg/mL.

Molecules are shown by their SMILES. “Also recorded” adds a separate entry of the source. Like-named read-outs stand apart in the source and are kept apart here.

Turning to `Cc1ccc(C)c(NC(=O)c2nnn(-c3cccc(Cl)c3C)c2C)c1` [Compound 1, 1-(3-chloro-2-methylphenyl)-N-(2,5-dimethylphenyl)-5-methyl-1H-1,2,3-triazole-4-carboxamide, reference compound], the “protective activity for pancreatic β-cells against ER stress (previously shown)” value in data set [1] is “protective activity”. Also, the “aqueous solubility (turbidimetric, in words)” value (from here on “aqueous solubility”) in data set [2] is on record as “sub-optimal aqueous solubility; also recorded: poor water solubility”.

As for `O=C(CNC(=O)c1cccc(O)c1)NCc1ccc(C(F)(F)F)cc1` [Compound 5m, 3-Hydroxy-N-(2-oxo-2-((4-(trifluoromethyl)benzyl)amino)ethyl)benzamide], the “aqueous solubility” value in data set [2] is “improved water solubility”. In data set [3], the “Max Activity (%)” value is recorded as 100%. Moreover, the Emax in data set [3] (Rattus norvegicus) stood at 100%. In data set [3] (setting [4]), the EC50 is 0.1 µM.

With `Cc1c(Cl)cccc1C(=O)NC(Cc1ccc(O)cc1)C(=O)NCc1ccc(C(F)(F)F)cc1` (stereo not drawn) [Compound 5q, 3-Chloro-N-(3-(4-hydroxyphenyl)-1-oxo-1-((4-(trifluoromethyl)benzyl)amino)propan-2-yl)-2-methylbenzamide], in data set [3], the “Max Activity (%)” value is “Cytotoxic” and the “β-cell protective activity against Tm (in words)” value (“β-cell protective activity” below) is “significantly less or not active”.

Regarding `CCc1ccc(C(=O)NCC(=O)NCc2ccc(C(F)(F)F)cc2)cc1` [Compound 5k, 4-Ethyl-N-(2-oxo-2-((4-(trifluoromethyl)benzyl)amino)ethyl)benzamide], the “Max Activity (%)” value in data set [3] was 42%. Moreover, in data set [3] (INS-1 cells with Tm 0.15 μg/mL), the EC50 turned out to be 45 ± 8 µM. Besides, the Emax in data set [3] (Rattus norvegicus) turned out to be 42%.

For `COc1ccc(CNC(=O)CNC(=O)c2cccc(Cl)c2C)cc1` [Compound 5d, 3-Chloro-N-(2-((4-methoxybenzyl)amino)-2-oxoethyl)-2-methylbenzamide], the “Max Activity (%)” value in data set [3] was 55%. The Emax in data set [3] (Rattus norvegicus) lay within 41 to 55%. In data set [3] (setting [4]), the EC50 was found to be 32 ± 7 µM.

`Cc1c(Cl)cccc1C(=O)NCC(=O)NCc1ccc(S(N)(=O)=O)cc1` [Compound 5e, 3-Chloro-2-methyl-N-(2-oxo-2-((4-sulfamoylbenzyl)amino)ethyl)benzamide]: the “Max Activity (%)” value in data set [3] was 52%. For the same compound, in data set [3] (Rattus norvegicus), the Emax was in the range of 41 to 55%. For the same compound, the EC50 in data set [3] (setting [4]) amounted to 40 ± 12 µM.

Regarding `O=C(CNC(=O)c1ccccc1)NCc1ccc(C(F)(F)F)cc1` [Compound 5j, N-(2-Oxo-2-((4-(trifluoromethyl)benzyl)amino)ethyl)benzamide], the “Max Activity (%)” value in data set [3] worked out at 35%. The EC50 in data set [3] (INS-1 cells with Tm 0.15 μg/mL) stood at 43 ± 11 µM. For the same compound, the Emax in data set [3] (Rattus norvegicus) came out at 35%.

For `O=C(CNC(=O)c1ccc(F)cc1)NCc1ccc(C(F)(F)F)cc1` [Compound 5l, 4-fluoro-N-(2-oxo-2-((4-(trifluoromethyl)benzyl)amino)ethyl)benzamide], the “Max Activity (%)” value in data set [3] is 12%. The Emax in data set [3] (Rattus norvegicus) was 12%. Besides, the EC50 in data set [3] (setting [4]) is 41 ± 6 µM.

Take `COc1cc(C(=O)NCC(=O)NCc2ccc(C(F)(F)F)cc2)ccc1O` [Compound 5o, 4-hydroxy-3-methoxy-N-(2-oxo-2-((4-(trifluoromethyl)benzyl)amino)ethyl)benzamide]: the “β-cell protective activity” value in data set [3] is recorded as “significantly compromised activity”. The Emax in data set [3] (Rattus norvegicus) was determined as 43%. In addition, the EC50 in data set [3] (setting [4]) amounted to 29 ± 6 µM.

With `COc1cc(CNC(=O)CNC(=O)c2cccc(Cl)c2C)ccc1O` [Compound 5h, 3-Chloro-N-(2-((4-hydroxy-3-methoxybenzyl)amino)-2-oxoethyl)-2-methylbenzamide], the “aqueous solubility” value in data set [2] is reported as “improved water solubility”. Besides, the “Max Activity (%)” value in data set [3] amounted to 100%. Moreover, the Emax in data set [3] (Rattus norvegicus) was 100%. The EC50 in data set [3] (setting [4]) stood at 10 ± 2 µM.

Consider `Cc1c(Cl)cccc1C(=O)NCC(=O)NCCc1ccc(O)cc1` [Compound 5f, 3-Chloro-N-(2-((4-hydroxyphenethyl)amino)-2-oxoethyl)-2-methylbenzamide], for which the “Max Activity (%)” value in data set [3] is on record as 41%. Besides, the Emax in data set [3] (Rattus norvegicus) lay within 41 to 55%. The EC50 in data set [3] (setting [4]) was determined as 34 ± 8 µM.

As to `Cc1c(Cl)cccc1C(=O)NCC(=O)NCc1ccccn1` [Compound 5b, 3-Chloro-2-methyl-N-(2-oxo-2-((pyridin-2-ylmethyl)amino)ethyl)benzamide], the “Max Activity (%)” value in data set [3] is recorded as 16%. For the same compound, the Emax in data set [3] (Rattus norvegicus) is 16%. Also, the EC50 in data set [3] (setting [4]) was found to be 38 ± 9 µM.

Consider `Cc1c(Cl)cccc1C(=O)NCC(=O)NCc1cccc(C(F)(F)F)c1` [Compound 5i, 3-Chloro-2-methyl-N-(2-oxo-2-((3-(trifluoromethyl)benzyl)amino)ethyl)benzamide], for which the “Max Activity (%)” value in data set [3] is 46%. For the same compound, the Emax in data set [3] (Rattus norvegicus) came out at 46%. The EC50 in data set [3] (setting [4]) was found to be 32 ± 7 µM.

As for `COc1cc(CNC(=O)CNC(=O)c2cccc(O)c2)ccc1O` [Compound 5n, 3-Hydroxy-N-(2-((4-hydroxy-3-methoxybenzyl)amino)-2-oxoethyl)benzamide], in data set [3], the “β-cell protective activity” value is listed as “significantly compromised activity”. Further, in data set [3] (Rattus norvegicus), the Emax was 30%. Moreover, in data set [3] (setting [4]), the EC50 came to 65 ± 8 µM.

Take `Cc1c(Cl)cccc1C(=O)NCC(=O)NCc1ccc(C(F)(F)F)cc1` [Compound 5g, 3-Chloro-2-methyl-N-(2-oxo-2-((4-(trifluoromethyl)benzyl)amino)ethyl)benzamide]: the “aqueous solubility” value in data set [2] is “improved water solubility”. Also, the “Max Activity (%)” value in data set [3] is 88%. For the same compound, the Emax in data set [3] (Rattus norvegicus) is 88%. In data set [3] (setting [4]), the EC50 worked out at 13 ± 1 µM.

For the compound `Cc1c(Cl)cccc1C(=O)NC(C)C(=O)NCc1ccc(C(F)(F)F)cc1` (stereo not drawn) [Compound 5p, 3-Chloro-2-methyl-N-(1-oxo-1-((4-(trifluoromethyl)benzyl)amino)propan-2-yl)benzamide], the “β-cell protective activity” value in data set [3] is reported as “significantly less or not active”. Further, the Emax in data set [3] (Rattus norvegicus) is 34%. For the same compound, the EC50 in data set [3] (setting [4]) came to 63 ± 4 µM.

For `Cc1c(Cl)cccc1C(=O)NCC(=O)Nc1ccc2nc[nH]c2c1` [Compound 5c, N-(2-((1H-benzo[d]imidazol-6-yl)amino)-2-oxoethyl)-3-chloro-2-methylbenzamide], the Emax in data set [3] (Rattus norvegicus) stood at 0%.

For `Cc1ccc(C)c(CNC(=O)CNC(=O)c2cccc(Cl)c2C)c1` [Compound 5a, 3-Chloro-N-(2-((2,5-dimethylbenzyl)amino)-2-oxoethyl)-2-methylbenzamide], in data set [3], the “Max Activity (%)” value turned out to be 45%. Besides, the EC50 was found to be 18 ± 4 µM in data set [3] (INS-1 cells with Tm 0.15 μg/mL) and 18.6 µM in data set [3] (setting [4]). Besides, in data set [3] (Rattus norvegicus), the Emax came to 45%.
